Experimental data as given in patent publication US6632824B2, “Aryl-8-azabicyclo[3.2.1]octanes for the treatment of depression” (Wyeth, priority 2001, dated 2003).
Where a name gives a salt, the structure may show the parent alone.

Columns and labels:
[1] = molecular target: T1, human 5-HT1A receptor (Homo sapiens, UniProt P08908); assay: HC 5-HT1A binding assay ([3H]8-OH-DPAT radioligand binding, h5-HT1A.CHO cell membranes)
T1 construct: expressed in transfected cells
T1 sequence (P08908 1-422): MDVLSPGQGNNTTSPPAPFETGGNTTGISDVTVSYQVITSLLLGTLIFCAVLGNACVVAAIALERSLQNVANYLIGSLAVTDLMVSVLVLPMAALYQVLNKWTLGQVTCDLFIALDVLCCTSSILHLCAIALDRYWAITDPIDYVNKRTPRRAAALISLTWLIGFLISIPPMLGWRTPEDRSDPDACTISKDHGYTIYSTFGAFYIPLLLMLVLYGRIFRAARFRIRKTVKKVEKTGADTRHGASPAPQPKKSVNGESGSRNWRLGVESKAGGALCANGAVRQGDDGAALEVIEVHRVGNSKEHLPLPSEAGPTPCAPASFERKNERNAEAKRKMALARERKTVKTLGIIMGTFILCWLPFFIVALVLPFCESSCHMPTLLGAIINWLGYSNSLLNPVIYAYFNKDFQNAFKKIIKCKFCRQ
Experimental: Cloning of Human 5-HT1A Receptor:
A stable Chinese hamster ovary cell line expressing the human 5-HT1A receptor subtype (h5-HT1A.CHO cells) is employed throughout this study. Cells are maintained in DMEM supplemented with 10% fetal calf serum, non-essential amino acids and penicillin/streptomycin.
Cells are grown to 95-100% confluency as a monolayer before membranes are harvested for binding studies. Cells are gently scraped from the culture plates, transferred to centrifuge tubes, and washed twice by centrifugation (2000 rpm for 10 min., 4° C.) in buffer (50 mM Tris; pH 7.5). The resulting pellets are aliquoted and placed at −80 C. On the day of assay, the cells are thawed on ice, and resuspended in buffer. Studies are conducted using [^3H]8-OH-DPAT as the radioligand. The binding assay is performed in 96-well microtiter plates in a final total volume of […] of buffer. […] Non-specific binding is determined in the presence of 10 μM 5HT. Saturation analysis is conducted by using [^3H]8-OH-DPAT at concentrations ranging from 0.3-30 nM. Following a 30 minute incubation at room temperature, the reaction is terminated by the addition of ice cold buffer and rapid filtration using a M-96 Brandel Cell Harvester (Gaithersburg, Md.) through a GF/B filter presoaked for 30 minutes in 0.5% polyethyleneimine.
^3H-Paroxetine Binding to Assess Affinity of Drugs for the Serotonin Transporter ([…]):
(§1) Briefly, frontal cortical membranes prepared from male S.D. rats are incubated with ^3H-paroxetine (0.1 nM) for 60 min at 25° C. All tubes contain either vehicle, test compound (one to eight concentrations), or a saturating concentration of fluoxetine (10 μM) to define […]. All reactions are terminated by the addition of ice cold Tris buffer followed by rapid filtration using a Tom Tech filtration device to separate bound from free ^3H-paroxetine.

[2] = molecular target: T2, 5-HT transporter (Rattus norvegicus, UniProt P31652); assay: Rat Brain 3H-Paroxetine Binding Assay (RB 5HT Transporter)
T2 construct: frontal cortical membranes prepared from male S.D. rats; from tissue; host or cells: rat frontal cortex membranes (male Sprague-Dawley)
Experimental: Rat Brain ^3H-Paroxetine Binding Assay (RB 5HT Transporter):
This assay is used to determine a compound's affinity of the 5-HT transporter.
as §1, with “with ^3H-parxetine” for “with ^3H-paroxetine”, “60 min.” for “60 min”

[3] = molecular target: T3, Human 5-HT Transporter (Homo sapiens, UniProt P31645); assay: Inhibition of 3H-5-HT Uptake by Cells Possessing the Human 5-HT Transporter (HC 5HT Transporter); assay type: cell-based
T3 construct: endogenous in cells; host or cells: JAR human carcinoma cells, treated with staurosporine
Experimental: On the day of assay, vehicle, excess of fluoxetine, or test compound is added to various wells on the plate. All wells then receive ^3H-5-HT and are incubated at 37° C. for 5 min. The wells are then washed with ice cold 50 mM Tris HCl (pH 7.4) buffer and aspirated to remove free ^3H-5-HT. 25 μl of 0.25 M NaOH is then added to each well to lyse the cells and 75 μl scintillation cocktail (Microscint™ 20) added prior to quantitation on a Packard TopCount machine. Tubes with vehicle represent total possible uptake; radioactivity counted in tubes with fluoxetine represent nonspecific binding/uptake and is subtracted from the total possible uptake to give total possible specific uptake. […] Specific uptake is then expressed as a % of control values and is analyzed using nonlinear regression analysis (Prizm) to determine IC50 values.

[4] = molecular target: T4, cloned human 5-HT1A receptors (Homo sapiens, UniProt P08908); assay: Assessment of agonism/antagonism at the 5-HT1A receptor using [35S]-GTPγS binding; assay type: biochemical
T4 construct: expressed in transfected cells
T4 sequence (P08908 1-422): T1 sequence (P08908 1-422)
Experimental: Assessment of Agonism/Antagonism at the 5-HT1A Receptor using [^35S]-GTPγS Binding to Cloned Human 5-HT1A Receptors:
Briefly, 5-HT1A cloned receptor membrane fragments (as used for 5-HT1A receptor binding assays) are stored at −70° C. until needed. When needed, membranes are rapidly thawed, centrifuged at 40,000× g for 10 minutes and resuspended at 4° C. for 10 minutes in assay buffer (25 mM HEPES, 3 mM MgCl2, 100 mM NaCl, 1 mM EDTA, 10 uM GDP, […], pH 8.0). These membranes are then incubated for 30 min at 30° C. with [^35S]GTPgS (1 nM) in the presence of vehicle, test compound (one to eight concentrations), or excess 8-OH-DPAT to define maximum agonist response. All reactions are terminated by the addition of ice cold Tris buffer followed by rapid filtration using a Tom Tech® filtration device to separate bound from free [^35S]GTPgS. Agonists produce an increase in the amount of [^35S]GTPgS bound whereas antagonists produce no increase in binding. Bound radioactivity is counted and analyzed as above.

T3 sequence (P31645 whole entry): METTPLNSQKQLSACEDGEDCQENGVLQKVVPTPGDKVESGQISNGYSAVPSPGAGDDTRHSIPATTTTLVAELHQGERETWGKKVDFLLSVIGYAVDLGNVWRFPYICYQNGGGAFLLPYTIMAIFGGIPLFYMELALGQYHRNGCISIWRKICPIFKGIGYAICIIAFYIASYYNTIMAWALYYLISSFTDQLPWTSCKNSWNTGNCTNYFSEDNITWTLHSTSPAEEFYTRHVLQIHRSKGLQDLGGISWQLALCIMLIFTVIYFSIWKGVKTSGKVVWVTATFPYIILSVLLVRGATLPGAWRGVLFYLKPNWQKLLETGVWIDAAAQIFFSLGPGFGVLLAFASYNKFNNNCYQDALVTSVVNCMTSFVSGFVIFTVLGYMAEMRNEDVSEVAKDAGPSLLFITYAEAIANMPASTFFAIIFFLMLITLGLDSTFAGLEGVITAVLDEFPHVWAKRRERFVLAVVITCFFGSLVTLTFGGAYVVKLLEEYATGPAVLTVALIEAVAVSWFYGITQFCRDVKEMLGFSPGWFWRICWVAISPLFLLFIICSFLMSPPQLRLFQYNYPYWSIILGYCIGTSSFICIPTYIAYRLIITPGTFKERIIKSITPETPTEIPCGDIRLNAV
T2 sequence (P31652 whole entry): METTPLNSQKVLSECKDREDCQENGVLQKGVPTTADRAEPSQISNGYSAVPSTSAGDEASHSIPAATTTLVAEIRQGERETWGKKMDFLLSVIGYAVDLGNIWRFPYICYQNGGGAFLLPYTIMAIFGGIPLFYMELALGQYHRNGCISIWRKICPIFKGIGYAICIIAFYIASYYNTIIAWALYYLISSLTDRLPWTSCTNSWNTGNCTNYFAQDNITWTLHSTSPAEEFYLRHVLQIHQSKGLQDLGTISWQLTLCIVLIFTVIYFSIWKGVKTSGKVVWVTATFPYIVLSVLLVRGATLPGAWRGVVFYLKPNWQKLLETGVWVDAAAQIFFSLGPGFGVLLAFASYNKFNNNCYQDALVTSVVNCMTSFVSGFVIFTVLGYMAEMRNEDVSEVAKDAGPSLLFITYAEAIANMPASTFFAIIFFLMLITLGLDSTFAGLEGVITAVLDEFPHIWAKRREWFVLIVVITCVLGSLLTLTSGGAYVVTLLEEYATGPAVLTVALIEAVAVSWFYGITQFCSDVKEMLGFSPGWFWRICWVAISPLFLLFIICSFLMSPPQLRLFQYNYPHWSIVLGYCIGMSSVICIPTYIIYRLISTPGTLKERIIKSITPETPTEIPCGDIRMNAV

Compound `COc1cc(OCCN2C3C=C(c4ccc5ccccc5c4)CC2CC3)c2ncccc2c1` (stereo not drawn) (as salt: oxalate) has a melting point of 100 to 103 °C.

In the case of `C1=C(c2c[nH]c3ccccc23)CC2CCC1N2CCOc1cccc2ncccc12` (stereo not drawn) (as salt: oxalate) [Example 3, 2-[3-(1H-Indol-3-yl)-8-azabicyclo[3.2.1]oct-2-en-8-yl]ethyl 5-quinolinyl Ether], the melting point is reported as 91 to 93 °C (dec.).

For `C1=C(c2ccc3ccccc3c2)CC2CCC1N2CCOc1cccc2c1OCCO2` (stereo not drawn) (as salt: oxalate) [Example 4, 8-[2-(2,3-Dihydro-benzo[1,4]dioxin-5-yloxy)-ethyl]-3-naphthalen-2-yl-8-aza-bicyclo[3.2.1]oct-2-ene], the melting point was 151 to 153 °C (dec.).

For `COc1cc(NCCN2C3C=C(c4ccc5ccccc5c4)CC2CC3)c2ncccc2c1` (stereo not drawn) (as salt: oxalate) [Example 5, 6-Methoxy-N-{2-[3-(2-naphthyl)-8-azabicyclo[3.2.1]oct-2-en-8-yl]ethyl}-8-quinolinamine], the melting point was 179 to 182 °C.

With `COc1ccc2cc(C3=CC4CCC(C3)N4CCOc3cccc4[nH]ccc34)ccc2c1` (stereo not drawn) (as salt: oxalate) [Example 10, 4-{2-[3-(6-Methoxy-naphthalen-2-yl)-8-aza-bicyclo[3.2.1]oct-2-en-8-yl]-ethoxy}-1H-indole] the melting point was 130 to 132 °C (dec.).

In the case of `FC(F)(F)c1cccc(OCCN2C3C=C(c4ccc5ccccc5c4)CC2CC3)c1` (stereo not drawn) (as salt: oxalate) [Example 11, 3-Naphthalen-2-yl-8-[2-(3-trifluoromethyl-phenoxy)-ethyl]-8-aza-bicyclo[3.2.1]oct-2-ene], the melting point is reported as 128 to 130 °C (dec.).

In the case of `c1ccc2cc(C3CC4CCC(C3)N4CCOc3cccc4[nH]ccc34)ccc2c1` (stereo not drawn) (as salt: oxalate) [Example 12, 4-[2-(3-Naphthalen-2-yl-8-aza-bicyclo[3.2.1]oct-8-yl)-ethoxy]-1H-indole], the melting point is reported as 119 to 120 °C (dec.).

In the case of `C1=C(c2c[nH]c3ccccc23)CC2CCC1N2CCOc1cccc2ncccc12` (stereo not drawn) [Example 3, 2-[3-(1H-Indol-3-yl)-8-azabicyclo[3.2.1]oct-2-en-8-yl]ethyl 5-quinolinyl Ether], the Ki [1] is reported as 173 nM, the Ki [2] is reported as 2.27 nM and the IC50 [3] is reported as 86.5 nM. The IC50 [4] was 1170 nM and the Emax ([4]; excess 8-OH-DPAT defines maximum agonist response, read-out: [35S]GTPgS Emax) was 0%.

With `C1=C(c2ccc3ccccc3c2)CC2CCC1N2CCOc1cccc2c1OCCO2` (stereo not drawn) [Example 4, 8-[2-(2,3-Dihydro-benzo[1,4]dioxin-5-yloxy)-ethyl]-3-naphthalen-2-yl-8-aza-bicyclo[3.2.1]oct-2-ene] the Ki [1] was 329 nM, the Ki [2] was 0.17 nM and the IC50 [3] was 21.7 nM.

For `COc1cc(NCCN2C3C=C(c4ccc5ccccc5c4)CC2CC3)c2ncccc2c1` (stereo not drawn) [Example 5, 6-Methoxy-N-{2-[3-(2-naphthyl)-8-azabicyclo[3.2.1]oct-2-en-8-yl]ethyl}-8-quinolinamine], the Ki [2] was 2.67 nM and the IC50 [3] was 42.8 nM.

`Clc1cc(NCCN2C3C=C(c4ccc5ccccc5c4)CC2CC3)c2ncccc2c1` (stereo not drawn) [Example 6, 6-Chloro-N-{2-[3-(2-naphthyl)-8-azabicyclo[3.2.1]oct-2-en-8-yl]ethyl}-8-quinolinamine] showed a melting point of 205 to 206 °C and a Ki [2] of 7.5 nM.

`C1=C(c2ccc3ccccc3c2)CC2CCC1N2CCNc1cccc2cccnc12` (stereo not drawn) [Example 7, N-{2-[3-(2-Naphthyl)-8-azabicyclo[3.2.1]oct-2-en-8-yl]ethyl}-8-quinolinamine] gave a melting point of 199 to 200 °C and a Ki [2] of 1.61 nM.

Work on `COc1ccc2cc(C3=CC4CCC(C3)N4CCOc3cccc4[nH]ccc34)ccc2c1` (stereo not drawn) [Example 10, 4-{2-[3-(6-Methoxy-naphthalen-2-yl)-8-aza-bicyclo[3.2.1]oct-2-en-8-yl]-ethoxy}-1H-indole] yielded a Ki [2] of 1.11 nM and an IC50 [3] of 58.6 nM.

`FC(F)(F)c1cccc(OCCN2C3C=C(c4ccc5ccccc5c4)CC2CC3)c1` (stereo not drawn) [Example 11, 3-Naphthalen-2-yl-8-[2-(3-trifluoromethyl-phenoxy)-ethyl]-8-aza-bicyclo[3.2.1]oct-2-ene] showed a Ki [2] of 34 nM and an IC50 [3] of 191 nM.

In the case of `c1ccc2cc(C3CC4CCC(C3)N4CCOc3cccc4[nH]ccc34)ccc2c1` (stereo not drawn) [Example 12, 4-[2-(3-Naphthalen-2-yl-8-aza-bicyclo[3.2.1]oct-8-yl)-ethoxy]-1H-indole], the Ki [2] is reported as 0.39 nM and the IC50 [3] is reported as 35.7 nM.

In the case of `c1ccc2cc(C3CC4CCC(C3)N4CCOc3cccc4cccnc34)ccc2c1` (stereo not drawn) [Example 17, 8-{2-[3-(2-Naphthyl)-8-azabicyclo[3.2.1]oct-8-yl]ethoxy}quinoline], the melting point is reported as 110 to 113 °C and the Ki [2] is reported as 0.13 nM.

Compound `c1ccc2cc(C3CC4CCC(C3)N4CCSc3cccc4cccnc34)ccc2c1` (stereo not drawn) [Example 18, 8-({2-[3-(2-Naphthyl)-8-azabicyclo[3.2.1]oct-8-yl]ethyl}sulfanyl)quinoline] has a Ki [1] of 256 nM, a melting point of 200 to 203 °C and a Ki [2] of 0.06 nM. It also gave an IC50 [3] of 3.5 nM.
